# Results from patent publication US20130172318A1, “ANTI-INFLAMMATORY AGENTS” (priority 2010, published 2013).
# What was measured:
# [1] = test system: MCP-1 induced migration of THP-1 cells; settings: MCP-1 induced THP-1 cell migration assay; disclosed in WO2005/053702; cited from earlier work
# [2] = test system: endotoxin-stimulated TNF-alpha levels; assay: Murine sub-lethal endotoxemia model, serum TNF-α by ELISA; assay type: in vivo, mouse; settings: single dose 1 mg/kg p.o. one hour prior to LPS i.p.; female CD1 mice; serum two hours after challenge
# Method: The anti-inflammatory efficacy of an exemplary compound according to the present invention was tested using the murine sub-lethal endotoxemia model.
# Briefly, the method is as follows: Female CD1 mice (28-30 g, ˜7 weeks of age) were dosed with their respective treatment in sterile filtered 1% CMC by oral gavage in a dose volume of 10 ml/kg one hour prior to an endotoxin (LPS) challenge. The endotoxin challenge was injected by the intraperitoneal route containing 675,000 Endotoxin Units of LPS (E. coli strain 0111:B4 (Code L4130)) in endotoxin free PBS. Mice were left for two hours and then exsanguinated under terminal anaesthesia and blood was taken. Serum was prepared from this terminal bleed and aliquoted and stored at −20° C. Serum TNF-α levels were measured by ELISA per manufacturers instructions (R and D Systems).
# Eight animals were treated in each group, and the data for the animal with the highest and lowest TNF-α level in each group were eliminated, and the mean and standard error reported for the remaining six animals. Data for untreated animals were taken from an historical control experiment.
Compound,fold more potent as a BSCI than dodecanoyl-3-aminocaprolactam [1],inhibition of endotoxin-stimulated TNF-alpha levels [2]
CCCCCCCCCCC(C)(C)C(=O)NC1CCCCNC1=O (centres unmarked) [2′2′-dimethyldodecenanoyl-3-aminocaprolactam],10 fold,–
"O=C(N[C@H]1CCCNC1=O)c1ccc(F)cc1 [Example 3, (S)-4-Fluoro-N-(2-oxopiperidin-3-yl)benzamide]",–,50%
